From patent US20230285512A1, “COMPOSITIONS AND METHODS FOR TREATING MYOCARDIAL INFARCTION AND ISCHEMIA” (priority 2022, published 2023)
Entries after “also recorded” stand apart in the source; their conditions may differ.

Test system: HL-1 cardiomyocytes
Experiment: In vitro hypoxia assay of HL-1 cardiomyocytes, live/dead
Format: cell-based
Procedure: To examine potential functional roles of these candidates, particularly on cellular apoptosis, the study next used an in vitro hypoxia assay of HL-1 CMs, in which cells were exposed to low oxygen (1%02) for 6 hours prior to treatment with recombinant forms of these proteins.
HL-1 cardiomyocytes (Sigma, cat. SCC065) were maintained in growth media consisting of 10% FBS in Claycomb Media (Sigma, cat. 51800C) supplemented with 10 mM norepinephrine (Sigma, cat. A0937) and […] L-glutamine (Gibco, cat. 25030081). Primary cardiac fibroblasts were isolated from Col1a1GFP/+ mice 2 months of age. Mice were injected with heparin prior to sacrifice and the heart collected. The tissue was then cut into 1-2 mm pieces and digested with Liberase Blendzyme TH and TM (Roche, cat. LIBTM-RO) in Hank's Balanced Salt Solution (HBSS) (Gibco, cat. 1417507) supplemented with DNAse I and polaxamer (10 mg/ml, Sigma, cat. 16758) in 37° C. for 1 h. […]
Fluorescent images were acquired with Leica fluorescence inverted microscope DMI6000B equipped with an EL6000 light source. […] Image quantification was performed using Imager s “threshold” and “analyze particles” functions. Assessment of live/dead was determined as the number of DAPI+ cells/HPF. EdU and pHH3 quantification were recorded as the number of EdU+ or pHH3+ nuclei over the total number of DAPI.

Substance: thymosin β4: Thymosin family protein Tmsb4x, recombinant form; human reference NP_066932 in Table 1
- number of DAPI+ (dead) cells per field (1% O2 for 6 hours prior to treatment with recombinant protein): reduced; also recorded: protective role
- cellular viability / toxicity (high doses (500 nM)): cellular toxicity
